# Laboratory results published in ChEMBL document CHEMBL1201862, “PubChem BioAssay data set” (2004).
#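 Results reflect a 48-hour exposure of cells in 96-well plates to compound at five concentrations. The concentration for 50% growth inhibition is given as GI50.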 Activity calls are given as the source filed them. No stated cut-off is given here; in the data, active = GI50 up to about 1.1 µM and inactive = higher.
# What was measured:
# Test in all cases: inhibition of tumour cell growth, NCI panel, 48 h
# MDA-N = test system: MDA-N
# 786-0 = test system: 786-0
# HOP-62 = test system: HOP-62
# Malme-3M = test system: Malme-3M
# HCT-15 = test system: HCT-15
# U-251 = test system: U-251
# NCI-H460 = test system: NCI-H460
# PC-3 = test system: PC-3
# EKVX = test system: EKVX
# DU-145 = test system: DU-145
# MOLT-4 = test system: MOLT-4
# HT-29 = test system: HT-29
# SW-620 = test system: SW-620
# SN12C = test system: SN12C
# HL-60 = test system: HL-60
# Hs-578T = test system: Hs-578T
# OVCAR-5 = test system: OVCAR-5
# OVCAR-3 = test system: OVCAR-3
# M19-MEL = test system: M19-MEL
Structure (SMILES),GI50 (MDA-N),GI50 (786-0),GI50 (HOP-62),GI50 (Malme-3M),GI50 (HCT-15) [µM],GI50 (U-251),GI50 (NCI-H460),GI50 (PC-3),GI50 (EKVX),GI50 (DU-145),GI50 (MOLT-4),GI50 (HT-29),GI50 (SW-620),GI50 (SN12C),GI50 (HL-60),GI50 (Hs-578T),GI50 (OVCAR-5),GI50 (OVCAR-3),GI50 (M19-MEL)
O=C(O)C(Cc1ccc(O)c([N+](=O)[O-])c1)N1C(=O)c2ccccc2C1=O (centres undefined),> 100 µM (inactive),> 100 µM (inactive),> 100 µM (inactive),> 100 µM (inactive),> 100,> 100 µM (inactive),> 100 µM (inactive),> 100 µM (inactive),> 100 µM (inactive),> 100 µM (inactive),> 100 µM (inactive),> 100 µM (inactive),> 100 µM (inactive),> 100 µM (inactive),18.6 µM (inactive),> 100 µM (inactive),> 100 µM (inactive),> 100 µM (inactive),
C/C1=C/C(C)CC(C)OC(=O)C(C)NC(=O)C(Cc2ccc(O)c(I)c2)N(C)C(=O)CNC(=O)C(C)C1 (centres undefined),< 0.01 µM (active),< 0.01 µM (active),< 0.01 µM (active),0.0272 µM (active),< 0.0121,< 0.01 µM (active),< 0.01 µM (active),< 0.01 µM (active),0.0443 µM (active),0.0643 µM (active),< 0.0178 µM (active),< 0.01 µM (active),< 0.01 µM (active),0.0342 µM (active),< 0.01 µM (active),< 0.0109 µM (active),8.81 µM (inactive),< 0.01 µM (active),
C=C(C)C1CC=C(C)C2(C1)OCC(C)(C)C(C)O2 (centres undefined),21 µM (inactive),17.6 µM (inactive),16.6 µM (inactive),14.5 µM (inactive),16.4,16.7 µM (inactive),26.1 µM (inactive),30.1 µM (inactive),24.7 µM (inactive),31 µM (inactive),20.1 µM (inactive),15.5 µM (inactive),19.1 µM (inactive),18.2 µM (inactive),15 µM (inactive),27.9 µM (inactive),19.3 µM (inactive),16.1 µM (inactive),
COC(=O)C1Cc2cccc(C)c2C1 (centres undefined),> 100 µM (inactive),> 100 µM (inactive),> 100 µM (inactive),> 100 µM (inactive),37.3,89.3 µM (inactive),> 100 µM (inactive),> 100 µM (inactive),> 100 µM (inactive),> 100 µM (inactive),46.6 µM (inactive),> 100 µM (inactive),> 100 µM (inactive),> 100 µM (inactive),65.5 µM (inactive),> 100 µM (inactive),> 100 µM (inactive),> 100 µM (inactive),
CCCC(=O)OCC1OC(n2cc(F)c(=O)[nH]c2=O)CC1O (centres undefined),1.45 µM (inactive),0.337 µM (active),0.0553 µM (active),> 5.06 µM (inactive),> 7.53,1.79 µM (inactive),0.0221 µM (active),0.746 µM (active),> 10 µM (inactive),0.255 µM (active),> 8.55 µM (inactive),0.721 µM (active),> 10 µM (inactive),0.181 µM (active),0.614 µM (active),3.85 µM (inactive),> 8.11 µM (inactive),> 2.11 µM (inactive),
O=C(N/N=C/c1ccc([N+](=O)[O-])cc1)Nc1ccc(C(=O)O)cc1,30.5 µM (inactive),39.1 µM (inactive),21.6 µM (inactive),53 µM (inactive),25.5,28.2 µM (inactive),26.5 µM (inactive),32.1 µM (inactive),23.1 µM (inactive),29.9 µM (inactive),22.9 µM (inactive),23.8 µM (inactive),40.9 µM (inactive),29.9 µM (inactive),37.2 µM (inactive),45.4 µM (inactive),40.6 µM (inactive),4.54 µM (inactive),
CCOC(=O)N/N=C(\CC)NO,> 100 µM (inactive),> 100 µM (inactive),> 100 µM (inactive),> 100 µM (inactive),> 100,> 100 µM (inactive),> 100 µM (inactive),> 100 µM (inactive),> 100 µM (inactive),> 100 µM (inactive),> 100 µM (inactive),> 100 µM (inactive),> 100 µM (inactive),> 100 µM (inactive),> 100 µM (inactive),> 100 µM (inactive),> 100 µM (inactive),> 100 µM (inactive),
O=C(/N=C(\Nc1ccccc1)SCCS/C(=N/C(=O)c1cccs1)Nc1ccccc1)c1cccs1,,61.4 µM (inactive),80.4 µM (inactive),91.6 µM (inactive),44.6,96.6 µM (inactive),31.6 µM (inactive),,92.5 µM (inactive),,24 µM (inactive),33.3 µM (inactive),95.7 µM (inactive),59.8 µM (inactive),,,> 100 µM (inactive),54 µM (inactive),53.8 µM (inactive)
CC(C)NC(=O)OCCN=c1c2ccccc2ccc2ccccc12,40.6 µM (inactive),59.4 µM (inactive),41.9 µM (inactive),46.1 µM (inactive),38.7,38.3 µM (inactive),45.6 µM (inactive),23.8 µM (inactive),35 µM (inactive),56.2 µM (inactive),24.4 µM (inactive),39.2 µM (inactive),64.1 µM (inactive),34.8 µM (inactive),15.8 µM (inactive),35.2 µM (inactive),88.9 µM (inactive),34.4 µM (inactive),
c1ccc2c(c1)nc1ccccn12,> 100 µM (inactive),> 100 µM (inactive),> 100 µM (inactive),> 100 µM (inactive),> 100,> 100 µM (inactive),> 100 µM (inactive),> 100 µM (inactive),> 100 µM (inactive),> 100 µM (inactive),> 100 µM (inactive),> 100 µM (inactive),> 100 µM (inactive),> 100 µM (inactive),> 100 µM (inactive),33.6 µM (inactive),> 100 µM (inactive),> 100 µM (inactive),
COc1cc([C@@H]2c3cc4c(cc3[C@@H](Nc3ccccc3C(=O)c3ccccc3)[C@H]3COC(=O)[C@H]23)OCO4)cc(OC)c1OC,0.316 µM (active),0.618 µM (active),2.11 µM (inactive),0.458 µM (active),0.444,0.362 µM (active),0.442 µM (active),0.622 µM (active),> 54.6 µM (inactive),1.82 µM (inactive),0.38 µM (active),0.314 µM (active),0.471 µM (active),1.9 µM (inactive),0.212 µM (active),0.373 µM (active),0.885 µM (active),0.785 µM (active),
C/C=C/[C@H]1O[C@@](O)([C@@H](C)[C@H](O)[C@H](C)[C@H]2OC(=O)/C(OC)=C/C(C)=C/[C@@H](C)[C@@H](O)[C@@H](CC)[C@@H](O)[C@H](C)C/C(C)=C/C=C/[C@@H]2OC)C[C@H](OC2CC(O)C(O)C(C)O2)[C@@H]1C (some centres undefined),< 0.0075 µM (active),< 0.0075 µM (active),< 0.0075 µM (active),< 0.0075 µM (active),< 0.0075,< 0.0075 µM (active),< 0.0075 µM (active),< 0.0075 µM (active),< 0.0075 µM (active),0.256 µM (active),< 0.0075 µM (active),< 0.0075 µM (active),< 0.0075 µM (active),7.78 µM (inactive),< 0.0075 µM (active),< 0.0075 µM (active),3.49 µM (inactive),< 0.0075 µM (active),
O=C1C(Br)=CC2(C=C1Br)CCNC1=C2C(=O)c2cccnc2C1=O,1.77 µM (inactive),15.3 µM (inactive),8.93 µM (inactive),9.46 µM (inactive),5.14,17.6 µM (inactive),4.13 µM (inactive),13.4 µM (inactive),15 µM (inactive),11.4 µM (inactive),5.69 µM (inactive),18.2 µM (inactive),11.5 µM (inactive),12.5 µM (inactive),3.49 µM (inactive),5.42 µM (inactive),17.4 µM (inactive),6.01 µM (inactive),
C=CCc1[nH]c2c(OCc3ccccc3)cc(N(CC=C)C(C)=O)cc2c1C,14.4 µM (inactive),14.2 µM (inactive),17.1 µM (inactive),16.4 µM (inactive),12.9,12.8 µM (inactive),14.8 µM (inactive),6.76 µM (inactive),8.45 µM (inactive),14.1 µM (inactive),5.77 µM (inactive),8.04 µM (inactive),13.9 µM (inactive),16 µM (inactive),12.8 µM (inactive),14.2 µM (inactive),14.1 µM (inactive),14.3 µM (inactive),
C/C=C1/CN2CCC3(O)c4ccccc4N4C=C(C(=O)OC)C1CC2C43O (centres undefined),> 100 µM (inactive),> 100 µM (inactive),> 100 µM (inactive),> 100 µM (inactive),> 100,> 100 µM (inactive),> 100 µM (inactive),> 100 µM (inactive),> 100 µM (inactive),> 100 µM (inactive),84.1 µM (inactive),> 100 µM (inactive),> 100 µM (inactive),> 100 µM (inactive),> 100 µM (inactive),> 100 µM (inactive),> 100 µM (inactive),> 100 µM (inactive),
COc1cc(C=O)ccc1O [VANILLIN],> 100 µM (inactive),> 100 µM (inactive),> 100 µM (inactive),> 100 µM (inactive),> 100,> 100 µM (inactive),> 100 µM (inactive),> 100 µM (inactive),> 100 µM (inactive),> 100 µM (inactive),> 100 µM (inactive),> 100 µM (inactive),> 100 µM (inactive),> 100 µM (inactive),> 100 µM (inactive),> 100 µM (inactive),> 100 µM (inactive),> 100 µM (inactive),
